Measurements from patent US6194451A, “Matrix metalloproteinase inhibitors” (Pharmacia & Upjohn S.p.A., priority 1997, dated 2001).
pIC50, pKi: −log10 of the molar value. Converted amounts (≈) assume the structure as drawn.

Legend:
[1] = Aqueous solubility; type: physicochemical; conditions: water, pH 7.0, 25° C.
Method: Further, several compounds of formula (I), in particular when R2 is hydroxy, and when R1 is hydroxymethyl, have enhanced water solubility as compared to the vast majority of MMP inhibitors of the prior art. An aqueous solubility threshold, which may vary widely but can be roughly set in the range of 1-10 mg/mL, makes systemic administration easy, and more than often is essential to good oral bioavailability.

[2] = target: T1, MMP-1 (human interstitial collagenase) (Homo sapiens, UniProt P03956); assay: Biochemical Assay (Protocol A): inhibition of human collagenase, fluorimetric peptide substrate; conditions: MMP-1, pH 7.4, 37° C.
T1 construct: truncated recombinant enzyme encompassing residues 101-269
T1 sequence (P03956 101-269): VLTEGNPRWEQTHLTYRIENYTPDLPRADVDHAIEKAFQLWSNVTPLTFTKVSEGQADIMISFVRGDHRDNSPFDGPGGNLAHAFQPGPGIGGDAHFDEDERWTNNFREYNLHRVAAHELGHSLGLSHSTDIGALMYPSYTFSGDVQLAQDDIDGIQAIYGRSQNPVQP
Description: (§1) As mentioned above, although low molecular weight MMP inhibitors, including hydroxamates of general formula (A), are already known, there is a strong need for better and diversified molecules for their use in medicine, that is in particular in the control or prevention of degenerative joint diseases such as rheumatoid arthritis and osteoarthritis, or in the management of multiple sclerosis, or in the treatment of invasive tumors. […] For example, the following protocol was used to assess the biochemical activity of compounds of formula (I) against MMP-1, MMP-2, and MMP-3 (respectively, human interstitial collagenase, gelatinase A, and stromelysin-1).
(§2) Human gelatinase-A (MMP-2) was obtained as pro-enzyme (72 kDa) and was activated with 1 mM 4-aminophenylmercuric acetate for 30 min at 37° C. immediately prior to use. Human stromelysin-1 (MMP-3) was obtained as a recombinant pro-enzyme isolated either from E. coli or from baculovirus infected Sf9 insect cells and activated either by heat (1 h, 55° C.) or by 5 mg/l trypsin (30 min, 37° C.) before addition of soybean trypsin inhibitor, finally removed by centrifugation.
(§3) All enzyme assays to determine values of the enzyme-inhibitor dissociation constants were performed using the peptide substrate (7-methoxycoumarin-4-yl)Acetyl-Pro-Leu-Gly-Leu-(3-[2,4-dinitrophenyl]-L-2,3-diaminopropionyl)-Ala-Arg-NH2 (Mca-Pro-Leu-Gly-Leu-Dpa-Ala-Arg--NH2) (C. G. Knight et al., FEBS Lett. 296:263-266, 1992). The enzymes cleave at the Gly-Leu bond removing the internally quenching Dpa group. The release of the highly fluorescent peptide Mca-Pro-Leu was followed fluorimetrically setting the excitation wavelength at 326 nm (bandwidth 5 nm) and the emission at 392 nm (bandwidth 20 nm).
(§4) Continuous fluorescence assay was carried out using a Perkin Elmer LS-50 Fluorescence Spectrophotometer fitted with a thermostatted four position stirring cell changer. Inhibitors were dissolved in the assay buffer ([…] Tris/HCl pH 7.4 containing 0.15 M NaCl, 10 mM CaCl2, 0.01 mM ZnCl2 and 0.05% Brij 35) thermostatted at 37° C. The reaction was started by the addition of substrate ([…]), followed by the addition of the enzyme (e.g. 1.0 nM collagenase, 0.04 nM gelatinase, or 3.0 nM stromelysin) and the increase in fluorescence was monitored over 30 min. The run was repeated at different concentrations of inhibitors in the range 0.1-10000 nM and data at inhibitor concentration in the region if their enzyme-inhibitor dissociation constants were used for calculation.
(§5) Substrate consumption was within 5% of the initial concentration and data outside this range were discarded. The Michaelis constants (Km) for the enzyme-substrate complexes is […] or greater (C. G. Knight et al., reference above), so that the factor (1+S/Km) can be approximated to unity without appreciable error.

[3] = target: T2, MMP-2 (human gelatinase A) (Homo sapiens, UniProt P08253); assay: Biochemical Assay (Protocol A): inhibition of human gelatinase A, fluorimetric peptide substrate; conditions: MMP-2, pH 7.4, 37° C.
T2 sequence (P08253 110-660): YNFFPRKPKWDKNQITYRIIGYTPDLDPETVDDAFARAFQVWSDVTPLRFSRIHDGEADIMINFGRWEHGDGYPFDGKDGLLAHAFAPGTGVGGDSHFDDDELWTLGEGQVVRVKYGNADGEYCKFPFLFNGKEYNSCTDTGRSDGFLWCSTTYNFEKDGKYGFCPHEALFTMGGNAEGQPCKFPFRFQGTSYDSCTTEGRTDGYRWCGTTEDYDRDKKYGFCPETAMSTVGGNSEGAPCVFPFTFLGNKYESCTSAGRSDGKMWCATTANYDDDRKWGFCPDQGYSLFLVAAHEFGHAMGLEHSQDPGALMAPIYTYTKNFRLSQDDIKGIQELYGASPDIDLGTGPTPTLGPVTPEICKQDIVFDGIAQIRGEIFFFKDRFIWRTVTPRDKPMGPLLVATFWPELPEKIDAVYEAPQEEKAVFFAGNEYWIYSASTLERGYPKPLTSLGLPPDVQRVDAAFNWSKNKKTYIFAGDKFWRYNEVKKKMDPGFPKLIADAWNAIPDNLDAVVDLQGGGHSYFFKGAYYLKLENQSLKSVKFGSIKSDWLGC
Description: as §1, §2, §3, §4, §5

[4] = target: T3, MMP-3 (human stromelysin-1) (Homo sapiens, UniProt P08254); assay: Biochemical Assay (Protocol A): inhibition of human stromelysin-1, fluorimetric peptide substrate; conditions: MMP-3, pH 7.4, 37° C.
T3 construct: host or cells: E. coli or baculovirus-infected Sf9 insect cells
T3 sequence (P08254 100-477): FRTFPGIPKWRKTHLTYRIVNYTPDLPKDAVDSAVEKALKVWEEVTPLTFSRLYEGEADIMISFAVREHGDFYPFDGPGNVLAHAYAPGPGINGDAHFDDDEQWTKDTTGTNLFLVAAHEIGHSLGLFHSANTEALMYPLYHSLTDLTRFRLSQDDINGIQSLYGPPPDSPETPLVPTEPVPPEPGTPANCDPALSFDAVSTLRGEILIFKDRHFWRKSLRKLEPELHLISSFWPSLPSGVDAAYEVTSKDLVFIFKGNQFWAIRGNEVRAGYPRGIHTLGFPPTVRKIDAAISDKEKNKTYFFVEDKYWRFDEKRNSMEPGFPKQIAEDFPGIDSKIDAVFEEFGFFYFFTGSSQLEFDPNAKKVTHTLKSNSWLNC
Description: as §1, §2, §3, §4, §5

[5] = system: release of TNF from THP-1 cells; assay: Cellular Assay (Protocol B): inhibition of release of TNF from LPS-stimulated THP-1 cells; type: cell-based; conditions: Homo sapiens, LPS 5 microg/mL, 4 h
Method: For example, the following cell-based assay was used to assess such activity:
THP-1 cells, cultured in RPMI 1640 supplemented with 10% FCS, were distributed into 24-well plates, 1 mL of a suspension of 1×10^6 cells/mL in each well. Compounds to be tested, dissolved in DMSO and diluted with the culture medium (1% final DMSO concentration) were added. Plates were incubated for 30 min at 37° C. in 5% CO2, and lipopolisaccharide (LPS 0111:B4, 5 microg/mL) was added as a stimulant. After a further 4 h incubation, cells were harvested, centrifuged (2,000 rpm, 7 min), and the surnatant was collected and freezed (-20° C.) until analysis. Analysis was run by classical ELISA methodology (monoclonal anti-TNF-a antibody, rabbit capture policlonal antibody, and peroxidated anti-rabbit antibody).

SMILES | solubility [1] [mg/mL] | pKi [2] | pKi [3] | pKi [4] | pIC50 [5] | inhibition at 100 µM ([5]; at 100 microM) [%]
CC(C)C[C@@H](C(=O)N1CCOCC1)[C@](O)(COC(=O)C(C)(C)C)C(=O)NO [Example 25, 1-[(2R,3S)-3-Hydroxy-4-hydroxyamino-2-isobutyl-3-(trimethyl-acetoxy)methylsuccinyl]morpholine] | > 8 | – | – | – | – | –
CC(=O)OC[C@](O)(C(=O)NO)[C@@H](CC(C)C)C(=O)N1CCCCC1 [Example 23, 1-[(2R,3S)-3-Acetoxymethyl-3-hydroxy-4-hydroxyamino-2-isobutylsuccinyl]piperidine] | 5 (≈ 14.5 mM) | – | – | – | – | –
CNC(=O)[C@@H](NC(=O)[C@H](CC(C)C)[C@](O)(COC(=O)C(C)(C)C)C(=O)NO)C(C)(C)C [Example 13, [(2R,3S)-3-Hydroxy-4-hydroxyamino-2-isobutyl-3-(tri-methylacetoxy)methyl-succinyl]-L-tert-leucine-N-methylamide] | 1.3 (≈ 2.92 mM) | 8.47 | 8.19 | 7.15 | – | –
CC(=O)OC[C@](O)(C(=O)NO)[C@@H](CC(C)C)C(=O)N[C@H](C(=O)Nc1ccncc1)C(C)(C)C [Example 11, [(2R,3S)-3-Acetoxymethyl-3-hydroxy-4-hydroxyamino-2-isobutyl-succinyl]-L-tert-leucine-N-(4-pyridyl)amide] | 3.4 (≈ 7.29 mM) | 8.14 | 8.33 | 8.31 | – | –
CNC(=O)[C@@H](NC(=O)[C@H](CC(C)C)[C@](O)(COC(C)=O)C(=O)NO)C(C)(C)C [Example 9, [(2R,3S)-3-Acetoxymethyl-3-hydroxy-4-hydroxyamino-2-isobutyl-succinyl]-L-tert-leucine-N-methylamide] | > 9 | 8.66 | 8.77 | 6.96 | – | –
CNC(=O)[C@@H](NC(=O)[C@H](CC(C)C)[C@](O)(COC1CCCCO1)C(=O)NO)C(C)(C)C (stereo partly drawn) [Example 2, [(2R,3S)-3-Hydroxy-4-hydroxyamino-2-isobutyl-3-(tetrahydro-pyran-2-yloxymethyl)succinyl]-L-tert-leucine-N-methylamide] | – | – | – | – | 5.28 | –

More lines, main results first:

solubility [1] [mg/mL] | pKi [2] | pKi [3] | pKi [4] | pIC50 [5] | SMILES | inhibition at 100 µM ([5]; at 100 microM) [%]
5.8 (≈ 15.4 mM) | 7.60 | 7.72 | 6.06 | – | CNC(=O)[C@H](Cc1ccccc1)NC(=O)[C@H](CC(C)C)C1(C(=O)NO)CC1 [Example 20, [2R-(1-Hydroxyaminocarbonyl)cyclopropyl-4-methylpentanoyl]-L-phenylalanine-N-methylamide] | –
1.9 (≈ 4.65 mM) | – | – | – | – | CC(C)C[C@@H](C(=O)N1CCOCC1)[C@](O)(COC(=O)c1ccccc1)C(=O)NO [Example 22, 1-[(2R,3S)-3-Benzoyoloxymethyl-3-hydroxy-4-hydroxyamino-2-isobutylsuccinyl]morpholine] | –
> 6 | – | – | – | – | CC(C)C[C@@H](C(=O)N1CCCCC1)[C@](O)(CO)C(=O)NO [Example 24, 1-[(2R,3S)-3-Hydroxy-4-hydroxyamino-3-hydroxymethyl-2-isobutyl-succinyl]piperidine] | –
– | 7.17 | 7.64 | 6.37 | 4.18 | CNC(=O)[C@H](Cc1ccccc1)NC(=O)[C@H](CC(C)C)[C@@](O)(COC1CCCCO1)C(=O)NO (stereo partly drawn) [Example 6, [(2R,3R)-3-Hydroxy-4-hydroxyamino-2-isobutyl-3-(tetrahydro-pyran-2-yloxymethyl)succinyl]-L-phenylalanine-N-methylamide] | –
10 (≈ 18.9 mM) | 7.35 | 7.40 | 5.96 | – | CNC(=O)[C@@H](NC(=O)[C@H](CC(C)C)[C@@](COC1CCCCO1)(OC1CCCCO1)C(=O)NO)C(C)(C)C (stereo partly drawn) [Example 8, [(2R,3S)-4-Hydroxyamino-2-isobutyl-3-(2-tetrahydropyranyl)oxy-3-(2-tetrahydropyranyl)oxymethylsuccinyl]-L-tert-leucine-N-methylamide] | –
> 10 | 8.17 | 8.02 | 8.00 | – | CC(C)C[C@@H](C(=O)N[C@H](C(=O)Nc1ccncc1)C(C)(C)C)[C@](O)(CO)C(=O)NO [Example 12, [(2R,3S)-3-Hydroxy-4-hydroxyamino-3-hydroxymethyl-2-isobutyl-succinyl]-L-tert-leucine-N-(4-pyridyl)amide] | –
– | 8.57 | 9.21 | 7.82 | 5.83 | CNC(=O)[C@H](Cc1ccccc1)NC(=O)[C@H](CC(C)C)[C@](O)(COC1CCCCO1)C(=O)NO (stereo partly drawn) [Example 5, [(2R,3S)-3-Hydroxy-4-hydroxyamino-2-isobutyl-3-(tetrahydro-pyran-2-yloxymethyl)succinyl]-L-phenylalanine-N-methylamide] | –
6 (≈ 15.2 mM) | 8.82 | 8.51 | 7.49 | – | CNC(=O)[C@H](Cc1ccccc1)NC(=O)[C@H](CC(C)C)[C@](O)(CO)C(=O)NO [Example 7, [(2R,3S)-3-Hydroxy-4-hydroxyamino-3-hydroxymethyl-2-isobutyl-succinyl]-L-phenylalanine-N-methylamide] | 90
